Drawing on patent US10508109B2 (priority 2015, dated 2019), this text covers IC50 for nine compounds.

The subject of one experiment is HCT-116. Briefly: Cell-based assay, anti-proliferative activity (Cell Counting Kit-8, 72 hours). Conditions: Homo sapiens, read-out: IC50 (μM) HCT-116. On the procedure: (§1) Active candidate inhibitors against SUV39H2 were evaluated for their target-specific cytotoxicity using A549, HCT-116, HFL1, CCD-18Co and PC14. 100 micro-L of cell suspension was seeded onto 96-well microtiter plate (ViewPlate-96FTC, PerkinElmer). The initial cell concentration of A549, HCT-116, HFL1, CCD-18Co and PC14 were 3,000 cells/well, 2,000 cells/well and 2,500 cells/well, respectively. Cellular growth was determined using Cell Counting Kit-8 (DOJINDO) at 72 hours after the exposure of the candidate inhibitors. IC50 was used as an indicator of the anti-proliferative activity of the inhibitors, and calculated by serial dilution method (0, 1.5625, 3.125, 6.25, 12.5, 25, 50, and 100 micro-M). Accurate IC50 values were calculated as described previously.

The next experiment relates to HFL1. The experiment is described as above. Conditions: Homo sapiens, read-out: IC50 (μM) HFL1. Here is the method:
as §1

The subject of another experiment is CCD-18Co. Described as above. The following applies: Homo sapiens, read-out: IC50 (μM) CCD-18Co. Here is the method:
as §1

Another experiment addresses SUV39H2 (Homo sapiens (Human), UniProt Q9H5I1). Conditions: read-out: IC50 (μM) Suv 39H2 assay.
A further experiment concerns A549. Briefly: Cell-based assay, anti-proliferative activity (Cell Counting Kit-8, 72 hours). The following applies: Homo sapiens, read-out: IC50 (μM) A549. On the procedure: 100 micro-L of cell suspension was seeded onto 96-well microtiter plate (ViewPlate-96FTC, PerkinElmer). […] Cellular growth was determined using Cell Counting Kit-8 (DOJINDO) at 72 hours after the exposure of the candidate inhibitors. […] Accurate IC50 values were calculated as described previously.

The mark [1] stands for this setting: HCT-116 cells, Cell Counting Kit-8, 72 hours.
The mark [2] stands for this setting: HFL1 cells, Cell Counting Kit-8, 72 hours.
Where [3] appears, read: CCD-18Co cells, Cell Counting Kit-8, 72 hours.
Where [4] appears, read: A549 cells, Cell Counting Kit-8, 72 hours.

The structures appear in SMILES notation. Where a name gives a salt, the structure may show the parent alone. Read-outs that look alike come from different tables or passages of the source.

Chain of SUV39H2 (Q9H5I1 whole entry): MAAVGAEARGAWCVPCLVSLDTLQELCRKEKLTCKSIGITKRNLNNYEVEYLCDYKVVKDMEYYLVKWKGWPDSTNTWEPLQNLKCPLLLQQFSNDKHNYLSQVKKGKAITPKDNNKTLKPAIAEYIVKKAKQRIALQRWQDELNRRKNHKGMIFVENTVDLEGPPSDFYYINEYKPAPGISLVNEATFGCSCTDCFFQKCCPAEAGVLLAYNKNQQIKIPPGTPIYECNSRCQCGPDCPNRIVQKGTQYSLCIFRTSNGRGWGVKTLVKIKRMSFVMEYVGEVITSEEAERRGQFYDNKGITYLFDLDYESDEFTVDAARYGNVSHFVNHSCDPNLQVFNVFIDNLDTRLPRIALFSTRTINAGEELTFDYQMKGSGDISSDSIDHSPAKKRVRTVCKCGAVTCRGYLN

As for `CCOC(=O)N1CCN(c2ccn3cc(-c4cc(Cl)c(OC)cc4OC)nc3c2)CC1` [Example 107, ethyl 4-[2-(5-chloro-2,4-dimethoxyphenyl)imidazo[1,2-a]pyridin-7-yl]-piperazine-1-carboxylate], the IC50 with HCT-116 (setting [1]) amounted to 1.7 µM; with HFL1 (setting [2]) it was 1.7 µM; in the experiment with CCD-18Co (setting [3]), 3.2 µM; on SUV39H2 (enzyme assay) it was 0.0116 µM; with A549 (setting [4]), 2.3 µM.

`COc1cc(OC(C)C)c(-c2cn3ccc(N4CC[C@H](N)C4)cc3n2)cc1Br` [Example 59, (S)-1-(2-(5-bromo-2-isopropoxy-4-methoxyphenyl)imidazo[1,2-a]pyridin-7-yl)pyrrolidin-3-amine hydrochloride]: the IC50 was determined as 2.6 µM with HCT-116 (HCT-116, 72 h); 1.8 µM in the experiment with HFL1 (HFL1, 72 h); 3.7 µM in the experiment with CCD-18Co (CCD-18Co, 72 h); 0.0112 µM at SUV39H2; 3.4 µM in the experiment on A549 (A549, 72 h).

With `COc1cc(OC)c(-c2cn3ccc(N4CCC(N)C4)cc3n2)cc1C#N` (stereo not drawn) [Example 73, 5-[7-(3-aminopyrrolidin-1-yl)imidazo[1,2-a]pyridin-2-yl]-2,4-dimethoxybenzonitrile], the IC50 in the experiment with HCT-116 (setting [1]) was 1.5 µM; with HFL1 (setting [2]) it was 1.5 µM; in the experiment on CCD-18Co (setting [3]) it was 5.6 µM; on SUV39H2 (enzyme assay) it was 0.0112 µM; in the experiment with A549 (setting [4]), 2.3 µM.

For `COc1cc(OC)c(-c2cn3ccc(N4CCN(CCNC(=O)OC(C)(C)C)CC4)cc3n2)cc1Cl` [Example 28, tert-butyl (2-(4-(2-(5-chloro-2,4-dimethoxyphenyl)imidazo[1,2-a]pyridin-7-yl)piperazin-1-yl)ethyl)carbamate dihydrochloride], the IC50 in the experiment on HCT-116 (setting [1]) amounted to 2.8 µM; with HFL1 (setting [2]), 3.4 µM; in the experiment with CCD-18Co (setting [3]), 4 µM; at SUV39H2 (enzyme assay) it was 0.021 µM; in the experiment with A549 (setting [4]), 3.6 µM.

For the compound `COC(=O)NCCNc1cn2cc(-c3cc(Cl)c(OC)cc3OC)nc2cc1OC` [Example 91, methyl (2-((2-(5-chloro-2,4-dimethoxyphenyl)-7-methoxyimidazo[1,2-a]-pyridin-6-yl)amino)ethyl)carbamate], the IC50 in the experiment with HCT-116 (setting [1]) worked out at 2.2 µM; in the experiment on HFL1 (setting [2]), 2.9 µM; in the experiment with CCD-18Co (setting [3]) it was 4.7 µM; at SUV39H2 (enzyme assay), 0.0263 µM; with A549 (setting [4]) it was 3.1 µM.

As to `COc1cc(OC)c(-c2cn3ccc(N4CCOCC4)cc3n2)cc1F` [Example 87, 4-(2-(5-fluoro-2,4-dimethoxyphenyl)imidazo[1,2-a]pyridin-7-yl)morpholine hydrobromide], the IC50 came out at 2.3 µM with HCT-116 (setting [1]); 4 µM with HFL1 (setting [2]); 5.6 µM with CCD-18Co (setting [3]); 0.032 µM on SUV39H2 (enzyme assay); 3.3 µM in the experiment on A549 (setting [4]).

On to `COc1cc(OC)c(-c2cn3ccc(N4CCC(CNC(=O)OC(C)(C)C)CC4)nc3n2)cc1Cl` [Example 32, tert-butyl ((1-(2-(5-chloro-2,4-dimethoxyphenyl)imidazo[1,2-a]pyrimidin-7-yl)piperidin-4-yl)methyl)carbamate], for which the IC50 in the experiment with HCT-116 (setting [1]) was found to be 8.4 µM; with HFL1 (setting [2]), 4.6 µM; with CCD-18Co (setting [3]), 6.3 µM; on SUV39H2 (enzyme assay), 0.037 µM; with A549 (setting [4]), 6.7 µM.

As for `COc1cc(OC)c(-c2cn3ccc(C4=CCN(C(C)=O)CC4)cc3n2)cc1Cl` [Example 120, 1-(4-(2-(5-chloro-2,4-dimethoxyphenyl)imidazo[1,2-a]pyridin-7-yl)-5,6-dihydropyridin-1(2H)-yl)ethanone], the 50% inhibitory concentration (IC50) in the experiment on HCT-116 (setting [1]) is 6.6 µM; in the experiment on HFL1 (setting [2]) it was 7.6 µM; with CCD-18Co (setting [3]) it was 6.8 µM; at SUV39H2 (enzyme assay) it was 0.0364 µM; with A549 (setting [4]) it was 6.5 µM.

Take `COc1cc(OC2CCCC2)c(-c2cn3ccc(N4CCOCC4)cc3n2)cc1Cl` [Example 90, 4-(2-(5-chloro-2-(cyclopentyloxy)-4-methoxyphenyl)imidazo[1,2-a]-pyridin-7-yl)morpholine]: the IC50 with HCT-116 (setting [1]) was 4.7 µM; in the experiment on HFL1 (setting [2]) it was 3.9 µM; in the experiment with CCD-18Co (setting [3]) it was 6 µM; on SUV39H2 (enzyme assay) it was 0.0584 µM; in the experiment with A549 (setting [4]) it was 7.1 µM.
